Data reported in article PMC11277004, “Di- and Triselenoesters—Promising Drug Candidates for the Future Therapy of Triple-Negative Breast Cancer” (International Journal of Molecular Sciences, 2024).

Assays:
Format in all cases: cell-based, human
[1] = tested on: MCF-7 and MDA-MB-231 breast cancer cells; assay: Western immunoblot of Akt and AMPK; settings: 0.5 and 1 μM, 24 h
Protocol: (§1) Protein concentrations in the samples were determined using the Lowry method. Samples were prepared containing equal amounts of protein (30 μg/lane) and an appropriate amount of Laemmli buffer (120 mM Tris-HCl, 20% glycerol, 0.4% SDS, and 0.02% bromophenol blue, pH 6.8) containing 100 mM 1,4-dithiothreitol (DTT; Roche, Basel, Switzerland). Samples were denatured at 95 °C for 10 min. The proteins were separated using the SDS-PAGE method described by Laemmli. Proteins were separated on 12% SDS-PAGE gels. […] Transfer conditions were 250 mA, at 4-8 °C, overnight in freshly prepared Towbin buffer. Membranes were blocked with 5% non-fat dried milk (Santa Cruz Biotechnology, Dallas, Texas, USA) in TBS-T (20 mM Tris, 150 mM NaCl, 0.1% Tween-20, pH 7.6) for 1 h at room temperature with gentle shaking. After the blocking step, membranes were washed four times with TBS-T (4 × 15 min) and incubated with primary monoclonal antibodies (against β-actin, p53 (both from Santa Cruz Biotechnology, Dallas, TX, USA), Akt, AMPK (both from BD Transduction Laboratories, San Jose, CA, USA), Bax, caspase 7, and caspase 9 (all from Cell Signaling Technology, Danvers, MA, USA)). Membranes were incubated with primary antibodies overnight at 4 °C. […]

[2] = tested on: breast cancer cells (MCF-7 and MDA-MB-231); assay: Apoptosis induction, summary statements
Protocol: (§2) The FITC Annexin V Apoptosis Detection Kit II (BD Pharmingen, San Diego, CA, USA) and a flow cytometer (BD FACSCanto II, BD Biosciences Systems, San Jose, CA, USA) were used in this evaluation. The assay was performed according to the manufacturer’s instructions. Flow cytometer calibration was performed by preparing two controls—a positive and a negative control. […] The negative control was cells that were not treated with any of the proapoptotic agents. First, in the cells treated with the tested compounds as well as the controls, the medium was removed, and the cells were washed twice with cold PBS. Subsequently, the cells were resuspended in the binding buffer included in the kit at a concentration of 1 × 10^6 cells/mL. From each sample, 100 µL of cell suspension was taken and transferred to test tubes, to which 5 µL each of FITC annexin V and propidium iodide (PI) were then added. The contents of the test tubes were gently vortexed and incubated for 15 min at room temperature, protected from light. After the required time, the contents of the test tubes were made up to 500 µL with binding buffer and immediately analyzed in a flow cytometer (10,000 events measured). After the flow cytometer readout, the results were analyzed using the FACSDiva 6.0 software (BD Biosciences Systems, San Jose, CA, USA). […]

[3] = tested on: MCF-7 and MDA-MB-231 breast cancer cells; assay: Western immunoblot of Bax, caspase 7 and 9, p53; settings: 0.5 and 1 μM, 24 h
Protocol: as §1

[4] = tested on: MCF-7 and MDA-MB-231 breast cancer cells; assay: Autophagy induction, summary statement over cell lines; settings: vs EDAG-8; 0.5 and 1 µM, 24 h
Protocol: The effects of the novel selenoesters and a reference compound (cisplatin) at concentrations of 0.5 and 1 µM (after 24 h) on the activation of the autophagy process in MCF-7, MDA-MB-231, and MCF-10A cells were evaluated utilizing the Autophagy Assay kit, Red (ImmunoChemistry Technologies, Bloomington, MN, USA) via flow cytometry (flow cytometer from BD FACSCanto II, BD Biosciences Systems, San Jose, CA, USA). The entire assay was performed according to the manufacturer’s instructions. After drug treatment, unfixed cells were washed and resuspended in PBS at a concentration of 5 × 10^5 cells/mL. Then, 490 µL each of the cell suspension was taken, transferred to test tubes, and 10 µL of Autophagy Probe, Red solution (previously diluted 1:5 in PBS) was added and incubated (30 min, 37 °C, in the dark). After incubation, the cells were washed and resuspended in cellular assay buffer, before finally adding fixative at a ratio of 1:5 (v/v). After this step, the prepared samples were immediately measured using a flow cytometer (BD FACSCanto II; 10,000 events measured), and the percentage of cells with an occurring autophagy process was calculated using the FACSDiva 6.0 software (both from BD Biosciences Systems, San Jose, CA, USA). The equipment calibration was performed using the BD Cytometer Setup and Tracking Beads (BD Biosciences, San Diego, CA, USA).

[5] = tested on: MCF-10A normal breast epithelial cells; assay: Apoptosis induction, annexin V-FITC/PI flow cytometry, MCF-10A; settings: especially at 1 µM, 24 h
Protocol: as §2

Row | Structure (SMILES) | expression of Akt and AMPK (Western blot, in words) [1] | development of necrosis in the breast cancer cell lines (in words) [2] | expression of Bax, caspase 7 and 9, p53 (Western blot, in words) [3] | fold weaker pro-autophagic activity compared to the most active derivative [4] | necrotic cells (in words) [5]
1 | N.N.[Cl][Pt][Cl] [Cisplatin, reference compound] | did not significantly affect | – | – | – | –
2 | CC(=O)C[Se]C(=O)c1ccc(C(=O)[Se]CC(C)=O)cc1 [EDAG-1, Se,Se-bis(2-oxopropyl) benzene-1,4-bis(carboselenoate)] | – | did not affect the development of necrosis | slightly weaker effect | approximately 2 fold | –
3 | CC(=O)C[Se]C(=O)c1cc(C(=O)[Se]CC(C)=O)cc(C(=O)[Se]CC(C)=O)c1 [EDAG-8, Se,Se,Se-tris-(2-oxopropyl) benzene-1,3,5-tris-(carboxyselenoate)] | most active | did not affect the development of necrosis | most active | – | increase in the number of necrotic cells
